Assay results published in US12410153B2, “Compounds, compositions and methods” (Avalo Therapeutics, Inc., priority 2014, dated 2025).
Read-outs that look alike come from different tables or passages of the source.

Test: Repeated once-daily oral dosing with food (Days 1-7) in healthy subjects, PK and PD
Assay type: in vivo, human
Conditions: for AUC(0-t) / Cmax / Vd/F / Tmax / AUC(0-inf) / half-life: both sexes, human, plasma, oral; for Cmax: read-out: Cmax, Mean (SD); for AUC(0-inf): read-out: AUCinf, Mean (SD)
Method: A randomized, double-blind, placebo-controlled, parallel-dose group in-patient study is conducted to investigate the pharmacodynamic (PD) effects of crystalline Form II of Compound (I) in healthy subjects.
The study is designed as a three-part, sequential study. The sequential nature of the study ensures that a range of doses are investigated first in a young, healthy population (Part 1) before proceeding to higher doses in the healthy population and the comparator populations (intermediate age and elderly) (Parts 2 and 3). For the purposes of this study, “young” refers to a subject who is 18 to 45 years of age, “intermediate age” refers to a subject who is 46 to 64 years of age, and “elderly” refers to a subject who is 65 years of age or older.
After a screening period of up to 21 days (Days −23 to −3), 16 healthy, young male and female subjects are randomly assigned to a dose group as shown in Table 9.
Each parallel dose group is balanced for gender (approximately equal number of males and females). The randomized subjects are domiciled from Day −1 through Day 8. On Day −1, the subjects receive placebo tablets in the fed state and undergo ambulatory blood pressure monitoring (ABPM) and safety assessments to establish time-matched baselines. On Days 1-7, the subjects receive the study drug in the fed state and undergo safety, pharmacokinetic (PK) and pharmacodynamics (PD) assessments. On Days 8-11, follow-up PK and safety assessments are performed.
Safety assessments include Clinician-Administered Dissociative States Scale (CADSS), Columbia-Suicide Severity Rating Scale (C-SSRS), concomitant medication, adverse event (AE) and vital sign assessments. In PK assessments, blood samples are taken and analyzed to determine PK parameters such as Cmax, Tmax, AUC0-24, and t1/2. PD assessments include ABPM, plasma brain-derived neurotrophic factor (BDNF) measurements, and Profile of Mood States (POMS) assessments.
After a screening period of up to 21 days (Days −23 to −3), 16 subjects (8 healthy, young male and female subjects, and 8 healthy, intermediate age male and female subjects) are randomly assigned to a dose group as shown in Table 10.
After a screening period of up to 21 days (Days −23 to −3), 16 subjects (8 healthy, young male and female subjects, and 8 healthy, elderly male and female subjects) are randomly assigned to a dose group as shown in Table 11.

[1] = 8 mg, young subjects, 8 mg, Day 7
[2] = 12 mg, intermediate age, 12 mg, Day 7

Which “average 7-day plasma BDNF values compared to placebo” value (16 and 20 mg) does the source give for `Cc1ccc(COC(=O)N2CC[C@H](CNc3ncccn3)[C@H](F)C2)cc1` [Form II, 4-methylbenzyl (3S, 4R)-3-fluoro-4-[(pyrimidin-2-ylamino)methyl] piperidine-1-carboxylate] here?
Its value is “trend for an increase”.

What about the “apparent oral clearance lower in female vs male subjects” value (Day 7) of the same molecule?
Its value is “approximately 15%”.

What about the “average Cmax higher in intermediate age and elderly subgroups vs young” value (Day 7) of the same molecule?
Its value is “approximately 30%”.

And the “t½ higher in female vs male subjects” value (Day 7)?
The value was “approximately 16%”.

What about the “mean plasma concentrations higher in female vs male subjects” value (Day 7, 2 to 24 hours postdose) of the same molecule?
The value was “approximately 20%”.

And the “Cmax and AUC vs dose” value (Days 1 and 7, 8 to 20 mg)?
The value was “approximately dose-proportional”.

What about the “average 24 hour and daytime SBP and DBP” value (all doses compared to placebo, maximal by Day 4) of the same molecule?
Its value is “increased”.

And the AUC(0-t) (8 mg, young subjects, 8 mg, Day 1, read-out: AUC0-24, Mean (SD))?
The AUC(0-t) was 1500 ng·h/mL.

And the AUC(0-t) (8 mg, young subjects, 8 mg, Day 1, read-out: AUClast, Mean (SD))?
The AUC(0-t) was 1490 ng·h/mL.

What about the Cmax (8 mg, young subjects, 8 mg, Day 1) of the same molecule?
The Cmax was 179 ng/mL.

What about the Vd/F (8 mg, young subjects, 8 mg, Day 1, read-out: Vz/F, Mean (SD)) of the same molecule?
The Vd/F was 101 L.

And the Tmax (8 mg, young subjects, 8 mg, Day 1, read-out: tmax, Mean (SD))?
The Tmax was 2.17 h.

And the Tmax (8 mg, young subjects, 8 mg, Day 1, read-out: tmax, Median)?
Its Tmax is 2 h.

And the AUC(0-t) (8 mg, young subjects, 8 mg, Day 7, read-out: AUC0-24, Mean (SD))?
The AUC(0-t) was 2400 ng·h/mL.

What about the AUC(0-inf) [1] of the same molecule?
The AUC(0-inf) was 4110 ng·h/mL.

And the AUC(0-t) (8 mg, young subjects, 8 mg, Day 7, read-out: AUClast, Mean (SD))?
Its AUC(0-t) is 3770 ng·h/mL.

What about the Cmax [1] of the same molecule?
The Cmax was 224 ng/mL.

And the half-life (8 mg, young subjects, 8 mg, Day 7, read-out: t1/2, Mean (SD) (converted))?
The half-life was 17.2 h.

What about the Tmax (8 mg, young subjects, 8 mg, Day 7, read-out: tmax, Mean (SD)) of the same molecule?
The Tmax was 2.75 h.

What about the Tmax (8 mg, young subjects, 8 mg, Day 7, read-out: tmax, Median) of the same molecule?
The Tmax was 3 h.

And the half-life (12 mg, Day 7, read-out: average t½, range across age groups)?
Its half-life is 20 to 28 h.

What about the AUC(0-t) (12 mg, elderly, 12 mg, Day 1, read-out: AUC0-24, Mean (SD)) of the same molecule?
The AUC(0-t) was 2130 ng·h/mL.

What about the AUC(0-t) (12 mg, elderly, 12 mg, Day 1, read-out: AUClast, Mean (SD)) of the same molecule?
The AUC(0-t) was 2100 ng·h/mL.

What about the Cmax (12 mg, elderly, 12 mg, Day 1) of the same molecule?
Its Cmax is 229 ng/mL.

What about the Vd/F (12 mg, elderly, 12 mg, Day 1, read-out: Vz/F, Mean (SD)) of the same molecule?
Its Vd/F is 164 L.

And the Tmax (12 mg, elderly, 12 mg, Day 1, read-out: tmax, Mean (SD))?
The Tmax was 1.93 h.

And the Tmax (12 mg, elderly, 12 mg, Day 1, read-out: tmax, Median)?
The Tmax was 1.75 h.

What about the AUC(0-t) (12 mg, elderly, 12 mg, Day 7, read-out: AUC0-24, Mean (SD)) of the same molecule?
Its AUC(0-t) is 4520 ng·h/mL.

What about the AUC(0-inf) (12 mg, elderly, 12 mg, Day 7) of the same molecule?
Its AUC(0-inf) is 10300 ng·h/mL.

And the AUC(0-t) (12 mg, elderly, 12 mg, Day 7, read-out: AUClast, Mean (SD))?
The AUC(0-t) was 9140 ng·h/mL.

And the Cmax (12 mg, elderly, 12 mg, Day 7)?
The Cmax was 349 ng/mL.

And the Vd/F (12 mg, elderly, 12 mg, Day 7, read-out: Vss/F, Mean (SD))?
Its Vd/F is 111 L.

And the half-life (12 mg, elderly, 12 mg, Day 7, read-out: t1/2, Mean (SD) (converted))?
Its half-life is 28.3 h.

What about the Tmax (12 mg, elderly, 12 mg, Day 7, read-out: tmax, Mean (SD)) of the same molecule?
Its Tmax is 2.26 h.

And the Tmax (12 mg, elderly, 12 mg, Day 7, read-out: tmax, Median)?
The Tmax was 2 h.

And the AUC(0-t) (12 mg, intermediate age, 12 mg, Day 1, read-out: AUC0-24, Mean (SD))?
The AUC(0-t) was 2000 ng·h/mL.

What about the AUC(0-t) (12 mg, intermediate age, 12 mg, Day 1, read-out: AUClast, Mean (SD)) of the same molecule?
The AUC(0-t) was 1980 ng·h/mL.

What about the Cmax (12 mg, intermediate age, 12 mg, Day 1) of the same molecule?
The Cmax was 257 ng/mL.

What about the Vd/F (12 mg, intermediate age, 12 mg, Day 1, read-out: Vz/F, Mean (SD)) of the same molecule?
The Vd/F was 201 L.

What about the Tmax (12 mg, intermediate age, 12 mg, Day 1, read-out: tmax, Mean (SD)) of the same molecule?
Its Tmax is 2.5 h.

What about the Tmax (12 mg, intermediate age, 12 mg, Day 1, read-out: tmax, Median) of the same molecule?
The Tmax was 2.5 h.

And the AUC(0-t) (12 mg, intermediate age, 12 mg, Day 7, read-out: AUC0-24, Mean (SD))?
The AUC(0-t) was 3840 ng·h/mL.

What about the AUC(0-inf) [2] of the same molecule?
The AUC(0-inf) was 8100 ng·h/mL.

What about the AUC(0-t) (12 mg, intermediate age, 12 mg, Day 7, read-out: AUClast, Mean (SD)) of the same molecule?
The AUC(0-t) was 7470 ng·h/mL.

And the Cmax [2]?
Its Cmax is 360 ng/mL.

What about the Vd/F (12 mg, intermediate age, 12 mg, Day 7, read-out: Vss/F, Mean (SD)) of the same molecule?
Its Vd/F is 121 L.

What about the half-life (12 mg, intermediate age, 12 mg, Day 7, read-out: t1/2, Mean (SD) (converted)) of the same molecule?
The half-life was 26.1 h.

What about the Tmax (12 mg, intermediate age, 12 mg, Day 7, read-out: tmax, Mean (SD)) of the same molecule?
Its Tmax is 1.83 h.

What about the Tmax (12 mg, intermediate age, 12 mg, Day 7, read-out: tmax, Median) of the same molecule?
Its Tmax is 1.5 h.
